In assay [1] the target is T1, c-mpl (Homo sapiens, UniProt P40238).
T1 sequence (P40238 26-635): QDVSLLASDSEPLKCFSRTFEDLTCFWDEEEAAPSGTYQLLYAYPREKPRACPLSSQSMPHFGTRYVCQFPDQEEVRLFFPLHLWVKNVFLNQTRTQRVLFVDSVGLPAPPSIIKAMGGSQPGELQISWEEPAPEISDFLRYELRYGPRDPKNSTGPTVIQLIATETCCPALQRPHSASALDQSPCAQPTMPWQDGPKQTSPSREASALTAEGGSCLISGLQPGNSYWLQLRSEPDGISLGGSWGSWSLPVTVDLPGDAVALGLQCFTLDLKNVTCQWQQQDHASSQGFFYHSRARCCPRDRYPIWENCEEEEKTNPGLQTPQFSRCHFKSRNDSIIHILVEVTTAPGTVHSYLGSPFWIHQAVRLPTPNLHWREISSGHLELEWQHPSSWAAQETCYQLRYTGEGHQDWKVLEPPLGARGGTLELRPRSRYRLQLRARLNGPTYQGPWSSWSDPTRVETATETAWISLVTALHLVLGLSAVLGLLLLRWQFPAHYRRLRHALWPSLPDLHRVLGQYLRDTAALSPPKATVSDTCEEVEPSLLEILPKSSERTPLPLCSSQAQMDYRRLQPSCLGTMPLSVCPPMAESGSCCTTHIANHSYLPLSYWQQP
The note with it: Cwirla et al., Science 276:1696-1699 (1997); cited from earlier work.

Assay [2] has as its target T1, c-mpl. The conditions noted are these: Cwirla et al., Science 276:1696-1699 (1997); cited from earlier work. This is another data set of the same source.
Assay [3] concerns the target hu-mpl (Homo sapiens, UniProt P40238). The note with it: ratio of KD of TMP1 to KD of peptide.
Assay [4] has as its target murine 32D cells transfected with a human mpl receptor (Homo sapiens, UniProt P40238).
Excerpt: The murine 32D cell proliferation assay involves the use of murine 32D cells that have been transfected with a human mpl receptor.

The IC50 is the concentration at which inhibition is half-maximal. The term EC50 denotes the concentration that produces a half-maximal response.

Take IEGPTLRQWLAARA [TPO mimetic peptide]: in assay [1], the IC50 was 2 nM. In assay [2], the 50% effective concentration (EC50) is 400 nM.

In the case of QGALQEGPTLRQWLGWGQWGHS [TMP19], in assay [3], the “Affinity relative to TMP1” value is 0.07. Further, in assay [4], the “Murine 32D Cell Proliferation Assay (relative to TMP1)” value amounted to 27%.

Turning to QGCSSGGPTLREWLQCRRMQHS [TMP22], the “Affinity relative to TMP1” value in assay [3] is listed as greater than 54. The “Murine 32D Cell Proliferation Assay (relative to TMP1)” value in assay [4] is “Not Detectable”.

In the case of QGCSWGGPTLKQWLQCVRAKHS [TMP23], the “Affinity relative to TMP1” value in assay [3] was greater than 54. For the same sequence, the “Murine 32D Cell Proliferation Assay (relative to TMP1)” value in assay [4] is listed as “Not Detectable”.

Regarding “SAQGIEGPTLRQWLAARALETV [TMP1, reference compound]”, the “Murine 32D Cell Proliferation Assay (relative to TMP1)” value in assay [4] is recorded as 100%.

The values are drawn from US7332474B2, “Peptides and related compounds having thrombopoietic activity” (Amgen Inc., priority 2001, dated 2008).
